From patent US9090582B2, “Highly pure pentamycin” (Biolotus Biotechnology AG, priority 2008, dated 2015)

Format: physicochemical
Procedure: The stability of more than 95% pure polymorph A on exposure to air and heat is compared to the stability of amorphous pentamycin (containing more than 95% pure pentamycin) as follows:
Amorphous pentamycin is prepared by precipitation from a solution of more than 95% pure pentamycin in dimethylsulfoxide by adding acetonitrile, followed by filtering and drying the precipitate.
More than 95% pure polymorph A of pentamycin is prepared by crystallization from a solution of more than 95% pure pentamycin in dimethylsulfoxide by adding ethyl acetate, followed by filtering and drying the precipitate.
A sample of the thus obtained amorphous pentamycin and a sample of the thus obtained polymorph A are incubated in an open vessel about six days at 60° C. and additionally 2 weeks at 40° C. The process of degradation is monitored by HPLC, measuring the decrease of the purity relative to the inital state at zero time (t0) set on 100%. After the incubation the amount of degradation of amorphous pentamycin is 11% whereas the amount of degradation of polymorph A is only 1%.

Row | SMILES | amount of degradation (decrease of the purity relative to the initial state at zero time t0 set on 100%)
1 | CCCCC[C@@H](O)[C@H]1C(=O)O[C@H](C)[C@@H](O)/C=C/C=C/C=C/C=C/C=C(\C)[C@@H](O)[C@H](O)[C@H](O)C[C@H](O)C[C@H](O)C[C@H](O)C[C@H](O)C[C@@H]1O [amorphous pentamycin, pentamycin] | 11%
2 | CCCCC[C@@H](O)[C@H]1C(=O)O[C@H](C)[C@@H](O)/C=C/C=C/C=C/C=C/C=C(\C)[C@@H](O)[C@H](O)[C@H](O)C[C@H](O)C[C@H](O)C[C@H](O)C[C@H](O)C[C@@H]1O [polymorph A, pentamycin] | 1%
